What was measured:
[1] = tested on: Human immunodeficiency virus 1; assay: Concentration required to block the Nuclear translocation of HIV-1 pre-integration complex with Reverse Transcriptase protein; format: functional, organism-based
[2] = tested on: Human immunodeficiency virus 1; assay: Concentration required to block the Nuclear translocation of HIV-1 pre-integration complex with Reverse Transcriptase protein; NA: Not Active; format: functional, organism-based

| IC50 [1] | IC50 [2] | Compound |
| --- | --- | --- |
| 100 nM | – | Cc1cc(Nc2cc(C(=O)O)cc(C(=O)O)c2)nc(N)[n+]1C |
| 100 nM | – | CC(=O)c1cc(Nc2cc(C)[n+](C)c(N)n2)cc(C(C)=O)c1 |
| – | Not Active | Cc1cc(Nc2cc(C(C)O)cc(C(C)O)c2)nc(N)[n+]1C (centres undefined) |
| – | Not Active | COC(=O)c1cc(Nc2cc(C)[n+](C)c(N)n2)cc(C(=O)OC)c1 |
